# Laboratory results taken from ChEMBL document CHEMBL3600346, “Synthesis and carbonic anhydrase inhibitory properties of novel uracil derivatives” (Bioorg Med Chem Lett, 2015).
# pKi: −log10 of the molar value. The source made the active and inactive calls. The calls are words filed in the database; no cut-off is given here.
# Legend:
# Carbonic anhydrase 2 = Carbonic anhydrase 2 (Homo sapiens, UniProt P00918); assay: Inhibition of human erythrocytes CA2 using 4-nitrophenylacetate as substrate by esterase assay; conditions: for pKi: read-out: Ki
# Carbonic anhydrase 1 [1] = biological target: T1, Carbonic anhydrase 1 (Homo sapiens, UniProt P00915); assay: Competitive inhibition of human erythrocytes CA1 using 4-nitrophenylacetate as substrate by Lineweaver-Burk plot analysis
# Target sequence in this assay (P00915 2-261 limits assumed): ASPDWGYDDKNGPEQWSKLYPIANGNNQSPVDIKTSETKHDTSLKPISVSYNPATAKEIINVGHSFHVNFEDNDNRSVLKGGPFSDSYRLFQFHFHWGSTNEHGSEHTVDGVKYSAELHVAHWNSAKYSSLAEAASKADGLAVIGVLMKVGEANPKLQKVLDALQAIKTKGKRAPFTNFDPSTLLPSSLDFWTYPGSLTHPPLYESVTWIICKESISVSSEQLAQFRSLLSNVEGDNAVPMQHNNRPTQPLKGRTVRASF
# Carbonic anhydrase 1 [2] = biological target: T1, Carbonic anhydrase 1; assay: Inhibition of human erythrocytes CA1 using 4-nitrophenylacetate as substrate by esterase assay
# Target sequence in this assay (P00915 whole entry): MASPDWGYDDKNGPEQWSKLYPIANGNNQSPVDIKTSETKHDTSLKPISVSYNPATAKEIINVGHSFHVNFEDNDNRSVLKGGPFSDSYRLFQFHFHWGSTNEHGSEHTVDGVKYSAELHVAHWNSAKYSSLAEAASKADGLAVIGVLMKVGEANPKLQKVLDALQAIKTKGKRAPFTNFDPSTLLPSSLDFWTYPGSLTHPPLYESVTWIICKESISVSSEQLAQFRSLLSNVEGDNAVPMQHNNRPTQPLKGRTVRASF
SMILES,pKi (Carbonic anhydrase 2),inhibition mode (Carbonic anhydrase 1 [1]),pKi (Carbonic anhydrase 1 [2]),Ki (Carbonic anhydrase 2),inhibition (Carbonic anhydrase 1 [1])
CS(=O)(=O)n1cc(Br)c(=O)[nH]c1=O,3.19,Active,3.37,,
Cn1ccc(=O)n(C)c1=O,3.78,Active,3.50,,
Cc1cc(O)nc(O)n1,,,4.24,Not Active,Active
Cc1ccc(S(=O)(=O)n2cc(Br)c(=O)[nH]c2=O)cc1,4.54,Active,4.97,,
O=c1[nH]cc(CO)c(=O)[nH]1,,,4.31,Not Active,
Oc1cccc(O)c1,,Active,,,
CC(=O)n1cc(Br)c(=O)[nH]c1=O,3.11,Active,3.33,,
Oc1ccccc1O,,,,,Active
Oc1ccccc1,,,,,Active
